Experimental data reported in ChEMBL document CHEMBL1667723, “Biotransformation of turmerones by Aspergillus niger” (J Nat Prod, 2011).

Molecular target: T1, Acetylcholinesterase (Homo sapiens, UniProt P22303)
Experiment: Inhibition of human erythrocytes acetylcholinesterase after 15 mins

T1 sequence (P22303 whole entry): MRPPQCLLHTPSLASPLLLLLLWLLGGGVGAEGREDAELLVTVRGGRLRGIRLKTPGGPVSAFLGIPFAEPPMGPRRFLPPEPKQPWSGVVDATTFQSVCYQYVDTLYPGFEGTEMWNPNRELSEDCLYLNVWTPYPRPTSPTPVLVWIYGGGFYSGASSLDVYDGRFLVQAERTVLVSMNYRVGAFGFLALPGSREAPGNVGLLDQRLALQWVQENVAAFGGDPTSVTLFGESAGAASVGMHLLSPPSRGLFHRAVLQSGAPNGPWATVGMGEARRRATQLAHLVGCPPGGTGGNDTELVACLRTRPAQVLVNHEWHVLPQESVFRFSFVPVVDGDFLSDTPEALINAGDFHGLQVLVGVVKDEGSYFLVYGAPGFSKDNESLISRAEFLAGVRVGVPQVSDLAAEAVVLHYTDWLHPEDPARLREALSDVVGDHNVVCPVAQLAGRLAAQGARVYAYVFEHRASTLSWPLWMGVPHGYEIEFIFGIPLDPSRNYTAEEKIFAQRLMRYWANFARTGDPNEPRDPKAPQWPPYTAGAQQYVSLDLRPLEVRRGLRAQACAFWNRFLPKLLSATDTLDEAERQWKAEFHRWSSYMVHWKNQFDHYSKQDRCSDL

Compared with CC(C)=CC(=O)C[C@H](C)c1ccc(C)cc1, Cc1ccc([C@@H](C)CC(=O)CC(C)C)cc1 is 2.3-fold lower in IC50: 191 µM for the first, 81.5 µM for the second. The second is the more potent here.

Molecular target: T1, Acetylcholinesterase
Experiment: Inhibition of human erythrocytes acetylcholinesterase after 15 mins at 250 uM relative to control

First: C/C(=C\C(=O)C[C@](C)(O)c1ccc(C(=O)O)cc1)CO
Second: CC(C)=CC(=O)C[C@](C)(O)c1ccc(C(=O)O)cc1
The inhibition of the first is lower: 34.3% for the first, 41.9% for the second.

Compared with C/C(=C\C(=O)C[C@H](C)c1ccc(C(=O)O)cc1)CO, CC(C)(O)CC(=O)CC(C)(O)c1ccc(C(=O)O)cc1 (single isomer, unassigned; (+)) is higher in inhibition: 31% for the first, 37.6% for the second.

Cc1coc(C[C@](C)(O)c2ccc(C(=O)O)cc2)c1 gave an inhibition of 33.6%.
